# Values quoted from earlier work in patent US20110251195A1, “ADRB2 GENE PO[…] INTRAOCULAR PRESSURE RESPONSE TO TOPICAL BETA-BLOCKERS” (Marshfield Clinic, priority 2008, published 2011).
# Tested on: ADRB2 gene product (Gln27 / Glu27)
# Conditions: Glu27 versus Gln27 ADRB2 variant
smiles,measurement,value
CC(C)NCC(O)c1ccc(O)c(O)c1 (stereo not shown) [isoprenaline],fold greater isoprenaline concentration necessary to down-regulate Glu27 to the same extent as Gln27,60 fold
